In PubChem BioAssay (NCI):
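48-hour exposure; five concentrations; linearly interpolated endpoints. GI50 marks 50% less growth. TGI: concentration producing complete growth inhibition.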 Where a SMILES comes first, the peptide text is derived from it. [ ]: non-standard residue; d: D form. Phe(F5) = N[CH](Cc1c(F)c(F)c(F)c(F)c1F)C(=O)O

Legend:
Test in all cases: inhibition of tumour cell growth, NCI panel, 48 h
[1] = system: A498 renal
[2] = system: COLO 205 colon
[3] = system: K-562 leukemia
[4] = system: MCF7 breast
[5] = system: MDA-MB-435
[6] = system: NCI-H460 lung
[7] = system: OVCAR-4 ovarian
[8] = system: SF-539 CNS
[9] = system: SNB-75 CNS
[10] = system: SR leukemia

| Compound | GI50 [1] | TGI [1] | GI50 [2] | TGI [2] | GI50 [3] | TGI [3] | TGI [4] | TGI [5] | GI50 [6] | TGI [6] | GI50 [7] | TGI [7] | GI50 [8] | TGI [8] | TGI [9] | GI50 [10] | TGI [10] | GI50 [4] | GI50 [5] | GI50 [9] |
| --- | --- | --- | --- | --- | --- | --- | --- | --- | --- | --- | --- | --- | --- | --- | --- | --- | --- | --- | --- | --- |
| COC(=O)C(CC(C)C)NC(=O)C(Cc1cnc[nH]1)NC(=O)CNC(=O)C(NC(=O)C(C)NC(=O)C(Cc1c[nH]c2ccccc12)NC(=O)C(CCC(=O)O)NC(=O)C(N)Cc1c(F)c(F)c(F)c(F)c1F)C(C)C (stereo unspecified) (H-[Phe(F5)]EWAVGHL-OMe; configuration not given here) | > 100 µM | > 100 µM | > 100 µM | > 100 µM | > 100 µM | > 100 µM | > 12.5 µM | > 12.5 µM | > 100 µM | > 100 µM | > 100 µM | > 100 µM | > 100 µM | > 100 µM | > 100 µM | > 100 µM | > 100 µM |  |  |  |
| C[C@]12CC[C@H]3[C@@H](CCC4=CC(=O)CC[C@@H]43)[C@@H]1CC[C@@H]2OC(=O)N(CCCl)N=O | 1.9 µM | 5.51 µM | 3.1 µM | 20 µM | 2.9 µM | 56 µM | 29.8 µM | 32.5 µM | 0.0702 µM | 2.45 µM | 10.8 µM | 31.2 µM | 0.0959 µM | 10.6 µM | 16.4 µM | < 0.0381 µM |  | 7.07 µM | 3.54 µM | 0.317 µM |
